Experimental data taken from PubChem BioAssay AID2060609 (Molecular Pharmacology Branch, DTP, NCI, 2025).
Values belong to the compound of their own block, whether it stands above or below them.

Test system: 855422-203-R-J1-PDC complex spheroids, viability
Assay: Anticancer human tumor 855422-203-R-J1-PDC patient-derived bladder carcinoma cell line growth inhibition [CLK]
Details: for IC50: curve of first compound; for viability, T/C: stronger effect = lower value
Method in brief: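 Multi-cell-type spheroids combined patient-derived tumor cells with HUVEC endothelial cells and human mesenchymal stem cells. Paired agents were dosed in half-log steps down from about clinical Cmax, or from 10 microM where Cmax was unknown.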

[1] = second compound 0.0316 µM, first compound 0.0316 µM
[2] = second compound 0.0316 µM, first compound 0.1 µM
[3] = second compound 0.0316 µM, first compound 0.316 µM
[4] = second compound 0.0316 µM, first compound 1 µM
[5] = second compound 0.1 µM, first compound 0.0316 µM
[6] = second compound 0.1 µM, first compound 0.1 µM
[7] = second compound 0.1 µM, first compound 0.316 µM
[8] = second compound 0.1 µM, first compound 1 µM
[9] = second compound 0.316 µM, first compound 0.0316 µM
[10] = second compound 0.316 µM, first compound 0.1 µM
[11] = second compound 0.316 µM, first compound 0.316 µM
[12] = second compound 0.316 µM, first compound 1 µM
[13] = second compound 1 µM, first compound 0.0316 µM
[14] = second compound 1 µM, first compound 0.1 µM
[15] = second compound 1 µM, first compound 0.316 µM
[16] = second compound 1 µM, first compound 1 µM
[17] = second compound 3.16 µM, first compound 0.0316 µM
[18] = second compound 3.16 µM, first compound 0.1 µM
[19] = second compound 3.16 µM, first compound 0.316 µM
[20] = second compound 3.16 µM, first compound 1 µM
[21] = second compound 10 µM, first compound 0.0316 µM
[22] = second compound 10 µM, first compound 0.1 µM
[23] = second compound 10 µM, first compound 0.316 µM
[24] = second compound 10 µM, first compound 1 µM
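Further: spheroids exposed to drugs for seven days before readout.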
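Wherever viability, T/C is given: 100% = DMSO vehicle control wells.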

IC50 (second compound 0.0316 µM): > 300 nM | IC50 (second compound 0.1 µM): 1.17 nM | IC50 (second compound 0.316 µM): < 0.949 nM | IC50 (second compound 1 µM): < 0.949 nM | IC50 (second compound 3.16 µM): < 0.949 nM | IC50 (second compound 10 µM): < 0.949 nM
SMILES: C=CC(=O)Nc1cc(Nc2nccc(-c3cn(C)c4ccccc34)n2)c(OC)cc1N(C)CCN(C)C + CNC(=O)c1ccc(Nc2nc(OC3CCCC3)c3c(-c4ccc5nc(C)oc5c4)c[nH]c3n2)c(OC)c1
viability, T/C (second compound 0.0316 µM, first compound 0.000949 µM): 108% | viability, T/C (second compound 0.0316 µM, first compound 0.003 µM): 112% | viability, T/C (second compound 0.0316 µM, first compound 0.00949 µM): 109% | viability, T/C (second compound 0.0316 µM, first compound 0.03 µM): 97.1% | viability, T/C (second compound 0.0316 µM, first compound 0.0949 µM): 98.8% | viability, T/C (second compound 0.0316 µM, first compound 0.3 µM): 76.3% | viability, T/C (second compound 0.1 µM, first compound 0.000949 µM): 53.6% | viability, T/C (second compound 0.1 µM, first compound 0.003 µM): 33.9% | viability, T/C (second compound 0.1 µM, first compound 0.00949 µM): 29.3% | viability, T/C (second compound 0.1 µM, first compound 0.03 µM): 29.2% | viability, T/C (second compound 0.1 µM, first compound 0.0949 µM): 28.6% | viability, T/C (second compound 0.1 µM, first compound 0.3 µM): 22.4% | viability, T/C (second compound 0.316 µM, first compound 0.000949 µM): 21.3% | viability, T/C (second compound 0.316 µM, first compound 0.003 µM): 22.4% | viability, T/C (second compound 0.316 µM, first compound 0.00949 µM): 19.1% | viability, T/C (second compound 0.316 µM, first compound 0.03 µM): 21.8% | viability, T/C (second compound 0.316 µM, first compound 0.0949 µM): 24% | viability, T/C (second compound 0.316 µM, first compound 0.3 µM): 20.1% | viability, T/C (second compound 1 µM, first compound 0.000949 µM): 19.4% | viability, T/C (second compound 1 µM, first compound 0.003 µM): 21% | viability, T/C (second compound 1 µM, first compound 0.00949 µM): 27.3% | viability, T/C (second compound 1 µM, first compound 0.03 µM): 23.5% | viability, T/C (second compound 1 µM, first compound 0.0949 µM): 22% | viability, T/C (second compound 1 µM, first compound 0.3 µM): 16.2% | viability, T/C (second compound 3.16 µM, first compound 0.000949 µM): 25.8% | viability, T/C (second compound 3.16 µM, first compound 0.003 µM): 23.1% | viability, T/C (second compound 3.16 µM, first compound 0.00949 µM): 20.8% | viability, T/C (second compound 3.16 µM, first compound 0.03 µM): 21.9% | viability, T/C (second compound 3.16 µM, first compound 0.0949 µM): 21.9% | viability, T/C (second compound 3.16 µM, first compound 0.3 µM): 16.5% | viability, T/C (second compound 10 µM, first compound 0.000949 µM): 19.7% | viability, T/C (second compound 10 µM, first compound 0.003 µM): 21.6% | viability, T/C (second compound 10 µM, first compound 0.00949 µM): 18.3% | viability, T/C (second compound 10 µM, first compound 0.03 µM): 19.1% | viability, T/C (second compound 10 µM, first compound 0.0949 µM): 23.3% | viability, T/C (second compound 10 µM, first compound 0.3 µM): 21.9%

IC50 (second compound 0.0316 µM): > 1000 nM | IC50 (second compound 0.1 µM): 6.4 nM | IC50 (second compound 0.316 µM): < 3.16 nM | IC50 (second compound 1 µM): < 3.16 nM | IC50 (second compound 3.16 µM): < 3.16 nM | IC50 (second compound 10 µM): < 3.16 nM
SMILES: CCN1CCN(Cc2ccc(Nc3ncc(F)c(-c4cc(F)c5nc(C)n(C(C)C)c5c4)n3)nc2)CC1 + CNC(=O)c1ccc(Nc2nc(OC3CCCC3)c3c(-c4ccc5nc(C)oc5c4)c[nH]c3n2)c(OC)c1
viability, T/C (second compound 0.0316 µM, first compound 0.00316 µM): 88% | viability, T/C (second compound 0.0316 µM, first compound 0.01 µM): 90.2% | viability, T/C [1]: 74.8% | viability, T/C [2]: 56.8% | viability, T/C [3]: 56.4% | viability, T/C [4]: 46.2% | viability, T/C (second compound 0.1 µM, first compound 0.00316 µM): 59.3% | viability, T/C (second compound 0.1 µM, first compound 0.01 µM): 48% | viability, T/C [5]: 31.6% | viability, T/C [6]: 33.7% | viability, T/C [7]: 31.8% | viability, T/C [8]: 37.3% | viability, T/C (second compound 0.316 µM, first compound 0.00316 µM): 23.3% | viability, T/C (second compound 0.316 µM, first compound 0.01 µM): 27.7% | viability, T/C [9]: 25.9% | viability, T/C [10]: 20.9% | viability, T/C [11]: 28.7% | viability, T/C [12]: 30.9% | viability, T/C (second compound 1 µM, first compound 0.00316 µM): 19.8% | viability, T/C (second compound 1 µM, first compound 0.01 µM): 23.9% | viability, T/C [13]: 18% | viability, T/C [14]: 22.9% | viability, T/C [15]: 22.2% | viability, T/C [16]: 23.9% | viability, T/C (second compound 3.16 µM, first compound 0.00316 µM): 18.2% | viability, T/C (second compound 3.16 µM, first compound 0.01 µM): 23.4% | viability, T/C [17]: 19.8% | viability, T/C [18]: 18.6% | viability, T/C [19]: 26.9% | viability, T/C [20]: 22.7% | viability, T/C (second compound 10 µM, first compound 0.00316 µM): 18.2% | viability, T/C (second compound 10 µM, first compound 0.01 µM): 22.1% | viability, T/C [21]: 22.3% | viability, T/C [22]: 24% | viability, T/C [23]: 18.5% | viability, T/C [24]: 20%

IC50 (second compound 0.0316 µM): 1120 nM | IC50 (second compound 0.1 µM): < 31.6 nM | IC50 (second compound 0.316 µM): < 31.6 nM | IC50 (second compound 1 µM): < 31.6 nM | IC50 (second compound 3.16 µM): < 31.6 nM | IC50 (second compound 10 µM): < 31.6 nM
SMILES: Nc1ccccc1NC(=O)c1ccc(CNC(=O)OCc2cccnc2)cc1 + CNC(=O)c1ccc(Nc2nc(OC3CCCC3)c3c(-c4ccc5nc(C)oc5c4)c[nH]c3n2)c(OC)c1
viability, T/C [1]: 77.8% | viability, T/C [2]: 81.3% | viability, T/C [3]: 79.9% | viability, T/C [4]: 49.4% | viability, T/C (second compound 0.0316 µM, first compound 3.16 µM): 22.4% | viability, T/C (second compound 0.0316 µM, first compound 10 µM): 1.4% | viability, T/C [5]: 46.5% | viability, T/C [6]: 43.9% | viability, T/C [7]: 44.9% | viability, T/C [8]: 27.7% | viability, T/C (second compound 0.1 µM, first compound 3.16 µM): 21.1% | viability, T/C (second compound 0.1 µM, first compound 10 µM): 1.14% | viability, T/C [9]: 20.8% | viability, T/C [10]: 16.2% | viability, T/C [11]: 16.9% | viability, T/C [12]: 18.2% | viability, T/C (second compound 0.316 µM, first compound 3.16 µM): 15.3% | viability, T/C (second compound 0.316 µM, first compound 10 µM): 0.51% | viability, T/C [13]: 18.5% | viability, T/C [14]: 17.9% | viability, T/C [15]: 14.9% | viability, T/C [16]: 13.2% | viability, T/C (second compound 1 µM, first compound 3.16 µM): 10.4% | viability, T/C (second compound 1 µM, first compound 10 µM): 0.17% | viability, T/C [17]: 17.5% | viability, T/C [18]: 18.6% | viability, T/C [19]: 12% | viability, T/C [20]: 15.3% | viability, T/C (second compound 3.16 µM, first compound 3.16 µM): 7.63% | viability, T/C (second compound 3.16 µM, first compound 10 µM): 0.29% | viability, T/C [21]: 19.9% | viability, T/C [22]: 13.6% | viability, T/C [23]: 16.6% | viability, T/C [24]: 12.1% | viability, T/C (second compound 10 µM, first compound 3.16 µM): 8.45% | viability, T/C (second compound 10 µM, first compound 10 µM): 0.69%
